From US5958978A, “Specific cyclooxygenase 2 inhibitor and anti-inflammatory agent” (Kabushiki Kaisha Yakult Honsha, priority 1995, dated 1999) come the findings set out here.

SMILES strings stand for the structures. Like-named read-outs stand apart in the source and are kept apart here.

The inhibition is the relative decrease from the control value, in per cent.

The target of one assay is T1, cyclooxygenase 1 (Ovis aries, UniProt P05979).
T1 sequence (P05979 25-600): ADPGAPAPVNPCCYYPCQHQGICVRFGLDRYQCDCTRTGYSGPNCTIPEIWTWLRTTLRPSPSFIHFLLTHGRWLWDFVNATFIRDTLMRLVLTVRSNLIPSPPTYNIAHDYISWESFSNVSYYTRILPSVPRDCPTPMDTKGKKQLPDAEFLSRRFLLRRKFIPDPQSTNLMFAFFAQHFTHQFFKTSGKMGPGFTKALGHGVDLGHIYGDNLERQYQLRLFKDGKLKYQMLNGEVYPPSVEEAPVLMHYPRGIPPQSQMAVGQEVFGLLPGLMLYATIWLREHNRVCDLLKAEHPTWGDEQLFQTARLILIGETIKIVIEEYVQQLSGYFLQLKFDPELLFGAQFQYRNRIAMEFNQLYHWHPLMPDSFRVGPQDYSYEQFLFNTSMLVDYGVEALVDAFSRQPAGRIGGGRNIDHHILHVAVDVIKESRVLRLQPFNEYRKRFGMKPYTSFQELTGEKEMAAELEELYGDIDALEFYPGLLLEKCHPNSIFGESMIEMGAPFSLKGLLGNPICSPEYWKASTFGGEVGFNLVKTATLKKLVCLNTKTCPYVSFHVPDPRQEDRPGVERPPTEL
Nature of the assay: biochemical. Conditions: for Inhibitory effect on cyclooxygenase 1 (in words): 0.01-100 μM. The method, then: (§1) (Specific Inhibitory Effect on Cyclooxygenase)
(§2) After the incubation, 2 μl of a 5 mM solution of arachidonic acid (dissolved in ethanol) were added (end concentration: 100 μM), followed by incubation for additional 5 minutes. After the incubation for 5 minutes, 10 μl of a 22 mM solution of ferrous chloride were added, and the resultant mixture was cooled down to 0° C. to stop the reaction. After stopping the reaction, the reaction mixture was centrifuged at 10,000×g for 5 minutes to determine the amount of prostaglandin E2 in the supernatant liquid thereof in accordance with the enzyme immunoassay. The cyclooxygenase-inhibiting effect of each test agent was determined by the average value of the amounts of prostaglandin E2 produced, which were obtained by repeating the above process twice, and the amount of prostaglandin E2 produced by using DMSO in place of the test agent to conduct the same treatment as described above.

Assay [1] relates to Production of Thromboxane B2 in Platelet. As to the kind of experiment: Effect on production of thromboxane B2 in platelet. The assay is classed as cell-based, rabbit. Conditions: for inhibitory effect on the production of thromboxane B2 (in words): 0.001-100 μM; for inhibition at 0.001 µM / inhibition at 0.01 µM / inhibition at 0.1 µM / inhibition at 1 µM / inhibition at 10 µM / inhibition at 100 µM: Oryctolagus cuniculus, Platelet, rabbit platelets, read-out: Percent inhibition of thromboxane B2. The protocol: (Effect of 4'-Hydroxydiclofenac on Production of Thromboxane B2 in Platelet)
Fresh blood [adding 1 volume of ACD (acid-citrate dextrose; consisting of 65 mM citric acid, 85 mM sodium citrate and 110 mM glucose) to 9 volumes of the blood] collected from the heart of a rabbit under Nembutal anesthesia was centrifuged at 200 ×g for 10 minutes to collect the supernatant liquid thereof. The supernatant liquid was centrifuged at 700 ×g for 10 minutes, and precipitated platelets were suspended in an isotonic trishydrochloric acid buffer solution [50 mM tris(hydroxymethyl)aminomethane, 150 mM NaCl, 1 mM EDTA (ethylenediaminetetraacetic acid) and 5 mM glucose; pH: 7.2]. The suspension was further centrifuged at 700 ×g for 10 minutes and washed. […] The thus-adjusted platelet suspension was poured in 1-ml portions into test tubes. […] After the incubation, 10 μl (end concentration: 2 mM) of 200 mM CaCl2 and 5 μl (end concentration: 5 μM) of 1 mM arachidonic acid were added, followed by incubation for additional 5 minutes. After the incubation, the test tube was transferred to an ice bath to stop the reaction. The test tube was centrifuged at 1,500 ×g and 4° C. for 10 minutes. After the supernatant liquid thereof was filtered through a membrane filter (pore size: 0.22 μm, MILLIPORE), the amount of thromboxane B2 in the filtrate was determined in accordance with the enzyme immunoassay. The effect of each test agent on the production of thromboxane B2 in the platelet was determined by the average value of the amounts of thromboxane B2 produced, which were obtained by repeating the above process 3 times, and the amount of thromboxane B2 produced by using DMSO in place of the test agent to conduct the same treatment as described above.

In a further assay the target is T2, cyclooxygenase 2 (Homo sapiens, UniProt P35354).
T2 sequence (P35354 18-604): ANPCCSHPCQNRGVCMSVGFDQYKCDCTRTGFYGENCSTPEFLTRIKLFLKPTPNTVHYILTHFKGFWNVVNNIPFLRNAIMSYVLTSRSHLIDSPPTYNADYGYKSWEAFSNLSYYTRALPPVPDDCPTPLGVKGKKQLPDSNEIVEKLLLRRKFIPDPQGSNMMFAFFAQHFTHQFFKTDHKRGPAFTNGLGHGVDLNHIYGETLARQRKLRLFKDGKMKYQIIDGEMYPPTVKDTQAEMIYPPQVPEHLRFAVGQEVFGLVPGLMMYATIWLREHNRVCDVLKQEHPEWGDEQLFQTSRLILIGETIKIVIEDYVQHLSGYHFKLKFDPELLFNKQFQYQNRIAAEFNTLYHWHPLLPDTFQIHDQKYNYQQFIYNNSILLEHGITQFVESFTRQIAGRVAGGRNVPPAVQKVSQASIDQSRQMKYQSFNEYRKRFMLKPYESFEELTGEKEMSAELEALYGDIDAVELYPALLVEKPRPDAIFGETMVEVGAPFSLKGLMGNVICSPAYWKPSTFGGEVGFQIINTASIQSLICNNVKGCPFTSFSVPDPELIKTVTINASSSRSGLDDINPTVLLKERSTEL
The method, then: as §1, §2

The test system of assay [2] is Production of Prostaglandin E2 by Stimulation of Human Synovial Cell by IL-1β. Nature of the assay: Effect on production of prostaglandin E2 by stimulation of human synovial cell by IL-1β. The assay is classed as cell-based. Conditions: for inhibition at 0.001 µM / inhibition at 0.01 µM / inhibition at 0.1 µM / inhibition at 1 µM / inhibition at 10 µM / inhibition at 100 µM: Synovial cell, human synovial cells, IL-1β, 22 hours, read-out: Percent inhibition of prostaglandin E2. The method, then: (Effect of 4'-Hydroxydiclofenac on Production of Prostaglandin E2 by Stimulation of Human Synovial Cell by IL-1β)
Synovial tissue obtained from a patient suffering from chronic articular rheumatism was placed in a Petri dish, cut and shredded, to which a 0.2% solution of collagenase was added. The mixture was left over for 2 hours under conditions of 5% CO2 and 37° C. An equiamount of a 0.25% solution of trypsin was further added, and the resultant mixture was left over for 2 hours. After cells isolated were collected and centrifuged (170 ×g, 10 minutes) to remove the supernatant liquid thereof, a medium [obtained by adding 10% FCS (fetal calf serum), 2 mM glutamine, 100 U/ml of penicillin, 100 μg/ml of streptomycin and 25 ng/ml of Fungizone to DMEM (Dulbecco modified minimum essential medium)] was added to the cells to wash them once. The cells were suspended in the medium, and the suspension was poured into a Petri dish and cultured under conditions of 5% CO2 and 37° C. Cells adhered to the bottom of the Petri dish were provided as synovial cells. The cells (1×10^5 cells/ml) were poured in 1-ml portions into wells of a 24-well plate and cultured under conditions of 5% CO2 and 37° C. After the cells were proliferated to an extent that they covered almost the entire surface of each well, the medium was changed to an SFM-101 medium (product of Nissui Seiyaku K.K.) containing 1% FCS. […] Furthermore, 10 μl (end concentration: 200 pg/ml) of a solution of IL-1βand 10 μl (end concentration: 10 μM) of arachidonic acid were added to conduct culture for 22 hours under conditions of 5% CO2 and 37° C. After the culture, the supernatant liquid thereof was collected and filtered through a membrane filter (pore size: 0.22 μm, MILLIPORE), thereby determining the amount of prostaglandin E2 in the filtrate in accordance with the enzyme immunoassay. The effect of each test agent on the production of prostaglandin E2 by the human synovial cells was determined by the average value of the amounts of prostaglandin E2 produced, which were obtained by repeating the above process 3 times, and the amount of prostaglandin E2 produced by using DMSO in place of the test agent to conduct the same treatment as described above.

Where [3] appears, read: read-out: Percent inhibition of cyclooxygenase 1.

Turning to `O=C(O)Cc1ccccc1Nc1c(Cl)cc(O)cc1Cl` [4'-Hydroxydiclofenac, 2-(2,6-dichloro-4-hydroxyanilino)phenylacetic acid], the “Percent inhibition of cyclooxygenase 1” value is 0% at cyclooxygenase 1 (0.01 μM); 0% on cyclooxygenase 1 (0.1 μM); 13% at cyclooxygenase 1 (1 μM); 3% on cyclooxygenase 1 (10 μM); 15% at cyclooxygenase 1 (100 μM). In addition, the “Inhibitory effect on cyclooxygenase 1 (in words)” value on cyclooxygenase 1 is listed as “no inhibitory effect on cyclooxygenase 1 is recognized”. The “inhibitory effect on the production of thromboxane B2 (in words)” value (“inhibitory effect on the production” below) in assay [1] is “clearly weak compared with indomethacin”. Moreover, the figures for the inhibition at 0.001 µM in assay [1] and in assay [2] were -25% and -3%, respectively. The inhibition at 0.01 µM in assay [1] is -25%; in assay [2], 0%. Besides, the inhibition at 0.1 µM was 0% in assay [1] and 35% in assay [2]. Further, the inhibition at 1 µM in assay [1] came out at 7%; in assay [2], 100%. The figures for the inhibition at 10 µM in assay [1] and in assay [2] were 15% and 100%, respectively. In addition, the figures for the inhibition at 100 µM in assay [1] and in assay [2] were 77% and 100%, respectively. Further, the “Percent inhibition of cyclooxygenase 2” value on cyclooxygenase 2 (0.01 μM) worked out at 21%; at cyclooxygenase 2 (0.1 μM), 18%; on cyclooxygenase 2 (1 μM) it was 22%; at cyclooxygenase 2 (10 μM) it was 82%; at cyclooxygenase 2 (100 μM), 90%. The “Inhibitory effect on cyclooxygenase 2 (in words)” value on cyclooxygenase 2 (0.01-100 μM) was “only an inhibitory effect on the cyclooxygenase 2 activity is recognized”. Further, the “inhibitory effect on prostaglandin E2 (in words)” value in assay [2] (0.001-100 μM, compared with indomethacin) was “almost comparable to indomethacin”.
With `O=C(O)Cc1ccccc1Nc1c(Cl)cccc1Cl` [Diclofenac], the “Inhibitory effect on cyclooxygenase 1 (in words)” value at cyclooxygenase 1 was “Inhibitory effects on cyclooxygenase 1 and cyclooxygenase 2 are recognized”. Besides, on cyclooxygenase 1 (setting [3]), the inhibition at 0.01 µM is 25%, the inhibition at 0.1 µM is 25%, the inhibition at 1 µM was 38% and the inhibition at 10 µM was found to be 57%. Moreover, the inhibition at 100 µM at cyclooxygenase 1 (setting [3]) is 87%. Moreover, in assay [1], the “inhibitory effect on the production” value was “an inhibitory effect on the production of thromboxane B2 is recognized”, the inhibition at 0.001 µM was 46%, the inhibition at 0.01 µM was 70% and the inhibition at 0.1 µM was determined as 68%. In assay [1], the inhibition at 1 µM turned out to be 77%, the inhibition at 10 µM was 93% and the inhibition at 100 µM is 99%. Also, in assay [2], the inhibition at 0.001 µM is 14%, the inhibition at 0.01 µM was 61%, the inhibition at 0.1 µM is 99% and the inhibition at 1 µM stood at 100%. Besides, in assay [2], the inhibition at 10 µM was found to be 100% and the inhibition at 100 µM came out at 100%.
For the compound `COc1ccc2c(c1)c(CC(=O)O)c(C)n2C(=O)c1ccc(Cl)cc1` [Indomethacin], in assay [1], the “inhibitory effect on the production” value is given as “an inhibitory effect on the production of thromboxane B2 is recognized”, the inhibition at 0.001 µM worked out at 2%, the inhibition at 0.01 µM amounted to 50% and the inhibition at 0.1 µM was found to be 76%. Moreover, in assay [1], the inhibition at 1 µM is 77%, the inhibition at 10 µM came to 78% and the inhibition at 100 µM is 78%. Besides, in assay [2], the inhibition at 0.001 µM was -3%, the inhibition at 0.01 µM came to 5%, the inhibition at 0.1 µM worked out at 62% and the inhibition at 1 µM was determined as 100%. In assay [2], the inhibition at 10 µM is 100% and the inhibition at 100 µM was 100%.
